A value given as a limit tells only on which side of the number the result lay.

The first data set has as its system rats. Description: Observation of abnormal behavior after oral dosing in rats. It is filed as in vivo. As to conditions: 100 mg/kg p.o., during 24 hour after dosing. As to the method: Compound 100 was orally administered 1 hour prior to the ICV-injection of bPP in satiated male Sprague-Dawley rats. […] Thus, Compound 100 has a potent in vivo Y5 antagonistic activity without causing any abnormal behavior.
In the case of `CS(=O)(=O)N1CC2(CCN(C(=O)Nc3cnc(-c4ccccc4)cn3)CC2)c2ccccc21` [Compound 100, 1 -Methanesulfonyl-N-(5-phenyl-2-pyrazinyl)spiro[indoline-3,4′-piperidine]-1′-carboxamide], the abnormal behavior entry is listed as “did not cause any abnormal behavior”.

The test system of a further data set is mice. Description: Observation of abnormal behavior after oral dosing in mice. It is filed as in vivo. As to conditions: 100 mg/kg p.o., during 24 hour after dosing.
Consider `CS(=O)(=O)N1CC2(CCN(C(=O)Nc3cnc(-c4ccccc4)cn3)CC2)c2ccccc21` [Compound 100, 1 -Methanesulfonyl-N-(5-phenyl-2-pyrazinyl)spiro[indoline-3,4′-piperidine]-1′-carboxamide], for which the abnormal behavior result was “did not cause any abnormal behavior”.

Another data set has as its system bPP-induced food intake. As to the kind of experiment: Bovine pancreatic polypeptide (bPP)-induced food intake in Sprague-Dawley rats. The class given is in vivo. To be noted: 1, 3, 10 and 30 mg/kg orally, 1 hour prior to ICV bPP, satiated male rats, two hour post-injection food intake. The protocol: Male Sprague-Dawley rats aged 7 weeks (Charles River, Japan) were maintained under the controlled temperature (23±3° C.), humidity (55±15%) and light-dark cycle (7:00-19:00 light on). Rats were housed individually with ad libitum access food (CE-2, Clea Japan) and tap water. Rats were anesthetized with sodium pentobarbital (50 mg/kg, i.p., Dainabot, Japan). A permanent stainless steel guide cannula for intracerebroventricular (ICV) injection (21 gauge, 10 mm long) was stereotaxically implanted into the right lateral ventricle. The stereotaxic coordinates used were as follows: 0.9 mm posterior and 1.2 mm lateral to the bregma and 1.5 mm ventral to the brain surface. Animals were allowed at least 6-day recovery postoperatively before the start of feeding experiment. The day before the experiment, they were handled and underwent mock injection, and nocturnal food intake was measured. Rats which ate more than 15 g during the night before the experiment were used for the following experiment. Test compounds were suspended in 0.5% methylcellulose and orally administered by gavage. Administration of test compounds usually began at 10:00. Dosing volume was 5 ml/kg. […] Two hour post-injection food intake was measured for each rat. […]
As to `CS(=O)(=O)N1CC2(CCN(C(=O)Nc3cnc(-c4ccccc4)cn3)CC2)c2ccccc21` [Compound 100, 1 -Methanesulfonyl-N-(5-phenyl-2-pyrazinyl)spiro[indoline-3,4′-piperidine]-1′-carboxamide], the bPP-induced food intake entry is “suppressed bPP-induced food intake in a dose-dependent manner”.

Staying with this data set, now noted: oral, 1 hour prior to ICV bPP, suppression of bPP-induced food intake.
Compound `CS(=O)(=O)N1CC2(CCN(C(=O)Nc3cnc(-c4ccccc4)cn3)CC2)c2ccccc21` [Compound 100, 1 -Methanesulfonyl-N-(5-phenyl-2-pyrazinyl)spiro[indoline-3,4′-piperidine]-1′-carboxamide] yielded a minimum effective dose of 3 mg/kg.

Test system in the next data set: not given
Test: not given
Settings: not given
Broadly, the melting point is the temperature, or range, at which the solid turns liquid. The compound `CS(=O)(=O)N1CC2(CCN(C(=O)Nc3cnc(-c4nncs4)cn3)CC2)c2cc(F)ccc21` [Compound 150, 5-fluoro-1-methylsulfonyl-N-[5-(1,3,4-thiadiazol-2-yl)-2-pyrazinyl]spiro[indoline-3,4′-piperidine]-1′-carboxamide] registered a melting point of 262 to 266 °C.

In turn, `CS(=O)(=O)N1CC2(CCN(C(=O)Nc3cnc(-c4ncns4)cn3)CC2)c2cc(F)ccc21` [Compound 151, 5-fluoro-1-methylsulfonyl-N-[5-(1,2,4-thiadiazol-5-yl)-2-pyrazinyl]spiro[indoline-3,4′-piperidine]-1′-carboxamide] registered a melting point of 239 to 240 °C.

Turning to `CCS(=O)(=O)N1CC2(CCN(C(=O)Nc3cnc(-c4nncs4)cn3)CC2)c2ccccc21` [Compound 152, 1-ethylsulfonyl-N-[5-(1,3,4-thiadiazol-2-yl)-2-pyrazinyl]spiro[indoline-3,4′-piperidine]-1′-carboxamide], the melting point fell in the range of 193 to 194 °C.

Take `CCS(=O)(=O)N1CC2(CCN(C(=O)Nc3cnc(-c4ncns4)cn3)CC2)c2ccccc21` [Compound 153, 1-ethylsulfonyl-N-[5-(1,2,4-thiadiazol-5-yl)-2-pyrazinyl]spiro[indoline-3,4′-piperidine]-1′-carboxamide]: the melting point fell in the range of 211 to 214 °C.

For the compound `CCS(=O)(=O)N1CC2(CCN(C(=O)Nc3cnc(-c4nncs4)cn3)CC2)c2ccc(F)cc21` [Compound 154, 1-ethylsulfonyl-6-fluoro-N-[5-(1,3,4-thiadiazol-2-yl)-2-pyrazinyl]spiro[indoline-3,4′-piperidine]-1′-carboxamide], the melting point fell in the range of 228 to 230 °C.

For the compound `CCS(=O)(=O)N1CC2(CCN(C(=O)Nc3cnc(-c4nncs4)cn3)CC2)c2cc(F)ccc21` [Compound 155, 1-ethylsulfonyl-5-fluoro-N-[5-(1,3,4-thiadiazol-2-yl)-2-pyrazinyl]spiro[indoline-3,4′-piperidine]-1′-carboxamide], the melting point lay in the range of 223 to 224 °C.

The compound `CS(=O)(=O)N1CC2(CCN(C(=O)Nc3cnc(-c4ccccc4)cn3)CC2)c2cc(F)ccc21` [Compound 202, 5-fluoro-1-methylsulfonyl-N-(5-phenyl-2-pyrazinyl)spiro[indoline-3,4′-piperidine]-1′-carboxamide] yielded a melting point of 215.5 to 215.8 °C.

Compound `CCS(=O)(=O)N1CC2(CCN(C(=O)Nc3cn(-c4cccc(F)c4)cn3)CC2)c2ccccc21` [Compound 203, 1-ethylsulfonyl-N-[1-(3-fluorophenyl)imidazol-4-yl]spiro[indoline-3,4′-piperidine]-1′-carboxamide] returned a melting point of 200 to 202 °C.

With `CCS(=O)(=O)N1CC2(CCN(C(=O)Nc3cn(-c4ccccc4F)cn3)CC2)c2ccccc21` [Compound 204, 1-ethylsulfonyl-N-[1-(2-fluorophenyl)imidazol-4-yl]spiro[indoline-3,4′-piperidine]-1′-carboxamide], the melting point lay in the range of 180 to 181.5 °C.

With `CC(=O)c1ccc(NC(=O)N2CCC3(CC2)CN(S(N)(=O)=O)c2ccccc23)cc1` [Compound 300, N-(4-acetylphenyl)-1-sulfamoylspiro[indoline-3,4′-piperidine]-1′-carboxamide], the melting point was 233 to 236 °C.

Take `NS(=O)(=O)N1CC2(CCN(C(=O)Nc3nnc(-c4ccccc4)s3)CC2)c2ccccc21` [Compound 400, N-(5-phenyl-1,3,4-thiadiazol-2-yl)-1-sulfamoylspiro[indoline-3,4′-piperidine]-1′-carboxamide]: the melting point is over 300 °C.

`NS(=O)(=O)N1CC2(CCN(C(=O)Nc3cc(-c4ccccc4)no3)CC2)c2ccccc21` [Compound 402, N-(3-phenylisoxazol-5-yl)-1-sulfamoylspiro[indoline-3,4′-piperidine]-1′-carboxamide] came in with a melting point of 226 to 227 °C.

In turn, `CC(=O)N1CC2(CCN(C(=O)Nc3nnc(-c4ccccc4)s3)CC2)c2ccccc21` [Compound 600, 1-Acetyl-N-(5-phenyl-1,3,4-thiadiazol-2-yl)spiro[indoline-3,4′-piperidine]-1′-carboxamide] returned a melting point of 260 °C.

`CN(C)C(=O)N1CC2(CCN(C(=O)Nc3nnc(-c4ccccc4)s3)CC2)c2ccccc21` [Compound 800, 1-Dimethylcarbamoyl-N-(5-phenyl-1,3,4-thiadiazol-2-yl)spiro[indoline-3,4′-piperidine]-1′-carboxamide] yielded a melting point of 267 °C.

The compound `CS(=O)(=O)N1CC2(CCN(C(=O)Nc3cc(-c4ccccc4)no3)CC2)c2cccnc21` [Compound 1402, 7-aza-N-(3-phenyl-5-isoxazolyl)-1-methylsulfonylspiro[indoline-3,4′-piperidine]-1′-carboxamide] displayed a melting point of 211 to 212 °C.

Source of the values: patent publication US6495559B2, “NPY Y5 receptor antagonists” (Merck & Co., Inc., priority 1998, dated 2002).
